Measurements: US20100029689A1, “PHOSPHODIESTERASE 4 INHIBITORS” (MEMORY PHARMACEUTICALS CORPORATION, priority 2008, published 2010)

How the values were obtained:
[1] = test system: rats; test: Passive avoidance in rats, in vivo test for learning and memory; design: species or system rat; details: male Sprague-Dawley rats, 0.1 mg/kg, 24 hours after electric shock, compared to vehicle (p<0.001)
Protocol: The test was performed as previously described (Zhang, H.-T., Crissman, A. M., Dorairaj, N. R., Chandler, L. J., and O'Donnell, J. M., Neuropsychopharmacology, 2000, 23, 198-204.). The apparatus (Model E10-16SC, Coulboum Instruments, Allentown, Pa.) consisted of a two-compartment chamber with an illuminated compartment connected to a darkened compartment by a guillotine door. The floor of the darkened compartment consisted of stainless steel rods through which an electric foot-shock could be delivered from a constant current source. All experimental groups were first habituated to the apparatus the day before the start of the experiment. During the training, the rat (Male Sprague-Dawley (Harlan) weighing 250 to 350 g) was placed in the illuminated compartment facing away from the closed guillotine door for 1 minute before the door was raised. The latency for entering the darkened compartment was recorded. After the rat entered the darkened compartment, the door was closed and a 0.5 mA electric shock was administered for 3 seconds. […] The latency for entering the darkened compartment was recorded for up to 180 seconds, at which time the trial was terminated.
(§1) All data were analyzed by analyses of variance (ANOVA); individual comparisons were made using Kewman-Keuls tests. […]

[2] = test system: rats; test: Radial arm maze task in rats, in vivo test for learning and memory; design: species or system rat; details: male Sprague-Dawley rats, 0.1 mg/kg, i.p., compared to control (p<0.01)
Protocol: The test was performed as previously described (Zhang, H.-T., Crissman, A. M., Dorairaj, N. R., Chandler, L. J., and O'Donnell, J. M., Neuropsychopharmacology, 2000, 23, 198-204.). Five days after initial housing, rats (male Sprague-Dawley (Harlan) weighing 250 to 350 g) were placed in the eight-arm radial maze (each arm was 60×10×12 cm high; the maze was elevated 70 cm above the floor) for acclimation for two days. Rats were then placed individually in the center of the maze for 5 minutes with food pellets placed close to the food wells, and then, the next day, in the wells at the end of the arms; 2 sessions a day were conducted. Next, four randomly selected arms were then baited with one pellet of food each. The rat was restricted to the center platform (26 cm in diameter) for 15 seconds and then allowed to move freely throughout the maze until it collected all pellets of food or 10 minutes passed, whichever came first. Four parameters were recorded: 1) working memory errors, i.e., entries into baited arms that had already been visited during the same trial; 2) reference memory errors, i.e., entries into unbaited arms; 3) total arm entries; and 4) the test duration (seconds), i.e., the time spent in the collection of all the pellets in the maze. […]
as §1

In the case of `C[C@]12N[C@H](Cc3ccccc31)c1ccccc12` [MK-801], the “latency for entering the darkened compartment (retention test)” value [1] is reported as “markedly reduced this latency” and the “frequencies of working and reference memory errors” value [2] is reported as “increased the frequencies of both working and reference memory errors”.
